Measured values: patent publication US12202808B2, “Substituted antivirals for treating coronavirus infection” (Erasmus University Medical Center Rotterdam, priority 2021, dated 2025)
Where two headings read alike, the source gives them in different places.

What was measured:
[1] = test system: Bronchiolar organoid-derived cultures; format: cell-based, human
[2] = test system: SARS-CoV-2; format: cell-based; conditions: bronchioalveolar organoid-derived cultures, 10 μM, MOI 0.1, 2-72 h p.i.
[3] = test system: SARS-CoV-2; format: cell-based; conditions: bronchiolar organoid-derived cultures, MOI 0.1, 2-72 h p.i., most pronounced at 72 h p.i.

`CO[C@H]1CN(C)C(=O)c2cc(NC(=O)NC(C)C)ccc2OC[C@H](C)N(Cc2ccc(-c3ccccn3)cc2)C[C@@H]1C` [Bafcilin1] was tested, and the “GSEA (Enrichr, COVID-19 Related Gene Sets) of treatment affected genes” value ([1]; 1 μM, 10 μM and common between both treatments) was “significant enrichment of genes upregulated upon SARS-CoV-2 infection”, the “number of genes affected (differentially expressed) as compared to DMSO” value ([1]; 1 μM, 24 h treatment) was 653 genes and the “Enrichr analysis of genes downregulated by treatment” value ([1]; 10 μM) was “enriched for genes upregulated upon SARS-CoV-2 or SARS-CoV-1 infection”. The “Enrichr analysis of genes upregulated by treatment” value ([1]; 10 μM) was “enriched for genes downregulated upon SARS-CoV-2 or MERS-CoV infection”, the “number of genes differentially expressed in the same direction in both concentration groups” value ([1]; common to 1 μM and 10 μM, 24 h treatment) was 437 genes and the “inhibition of SARS-CoV-2 replication” value [2] was “inhibited SARS-CoV-2 replication”. For the same compound, the “inhibition of SARS-CoV-2 replication as compared to the DMSO control” value ([3]; 1 μM) was “inhibited SARS-CoV-2 replication” and the “inhibition of SARS-CoV-2 replication as compared to the DMSO control” value ([3]; 10 μM) was “inhibited SARS-CoV-2 replication”.
